For this series, the system named is rodent lifetime carcinogenesis bioassay, tumor incidence TD50. Description: chronic cancer bioassays in animals – CPDB, compiled studies (AID 1745844).

Structures are written as SMILES. Active and inactive are the calls of the source. No rule for the calls is given here.

By TD50 is commonly meant the dose at which the toxic effect under study appears in half of the subjects. With `Clc1ccc(C(c2ccccc2Cl)C(Cl)Cl)cc1` (centres undefined), the TD50 runs as follows: (mouse, strain B6AKF1, females, oral dosing, site: any site (literature study), lesion: several types, types named in the paper, dosed 76 weeks, study length 76 weeks) 102 mg/kg/day; (mouse, strain B6AKF1, females, oral dosing, site: lung, lesion: adenoma, dosed 76 weeks, study length 76 weeks) 236 mg/kg/day; (mouse, strain B6AKF1, males, oral dosing, site: any site (literature study), lesion: several types, types named in the paper, dosed 76 weeks, study length 76 weeks) 187 mg/kg/day; (mouse, strain B6AKF1, males, oral dosing, site: lung, lesion: adenoma, dosed 76 weeks, study length 76 weeks) 414 mg/kg/day; (mouse, strain B6AKF1, males, oral dosing, site: lung, lesion: carcinoma, dosed 76 weeks, study length 76 weeks) 467 mg/kg/day; (mouse, strain B6C3F1, males, oral dosing, site: all sites, lesion: reticulum-cell sarcoma, dosed 76 weeks, study length 76 weeks) 82.1 mg/kg/day. The TD50 is 38.5 mg/kg/day (mouse, strain B6C3F1, males, oral dosing, site: any site (literature study), lesion: several types, types named in the paper, dosed 76 weeks, study length 76 weeks); 147 mg/kg/day (mouse, strain B6C3F1, males, oral dosing, site: liver, lesion: hepatoma, dosed 76 weeks, study length 76 weeks); 467 mg/kg/day (mouse, strain B6C3F1, males, oral dosing, site: lung, lesion: adenoma, dosed 76 weeks, study length 76 weeks).
Turning to `COc1ccc(N)c(OC)c1`, the TD50 runs as follows: (mouse, strain B6C3F1, females, in feed, site: any site (literature study), lesion: several types, types named in the paper, dosed 103 weeks, study length 104 weeks) 986 mg/kg/day (inactive); (mouse, strain B6C3F1, females, in feed, site: liver, lesion: hepatocellular adenoma + hepatocellular carcinoma + neoplastic nodule, dosed 103 weeks, study length 104 weeks) 2790 mg/kg/day; (mouse, strain B6C3F1, females, in feed, site: lung, lesion: alveolar/bronchiolar adenoma + alveolar/bronchiolar carcinoma, dosed 103 weeks, study length 104 weeks) 50600 mg/kg/day; (mouse, strain B6C3F1, males, in feed, site: any site (literature study), lesion: several types, types named in the paper, dosed 103 weeks, study length 104 weeks) 1650 mg/kg/day (inactive); (mouse, strain B6C3F1, males, in feed, site: liver, lesion: hepatocellular adenoma + hepatocellular carcinoma + neoplastic nodule, dosed 103 weeks, study length 104 weeks) 1390 mg/kg/day. In addition, the carcinogen call (rat, strain Fischer 344, females, in feed, site: any site (literature study), lesion: several types, types named in the paper, dosed 104 weeks, study length 105 weeks) was “negative (inactive)” and the carcinogen call (rat, strain Fischer 344, males, in feed, site: any site (literature study), lesion: several types, types named in the paper, dosed 104 weeks, study length 105 weeks) was “negative (inactive)”.
As to `Nc1cccc2c(N)cccc12`, the TD50 reads like this: (mouse, strain B6C3F1, females, in feed, site: any site (literature study), lesion: several types, types named in the paper, dosed 103 weeks, study length 105 weeks) 223 mg/kg/day; (mouse, strain B6C3F1, females, in feed, site: liver + lung + thyroid gland, lesion: hepatocellular adenoma + hepatocellular carcinoma + alveolar/bronchiolar adenoma + alveolar/bronchiolar carcinoma + c-cell adeno, dosed 103 weeks, study length 105 weeks) 66.6 mg/kg/day; (mouse, strain B6C3F1, females, in feed, site: liver, lesion: hepatocellular adenoma + hepatocellular carcinoma + neoplastic nodule, dosed 103 weeks, study length 105 weeks) 129 mg/kg/day; (mouse, strain B6C3F1, females, in feed, site: liver, lesion: hepatocellular adenoma + hepatocellular carcinoma, dosed 103 weeks, study length 105 weeks) 129 mg/kg/day; (mouse, strain B6C3F1, females, in feed, site: liver, lesion: hepatocellular carcinoma, dosed 103 weeks, study length 105 weeks) 115 mg/kg/day; (mouse, strain B6C3F1, females, in feed, site: lung, lesion: alveolar/bronchiolar adenoma + alveolar/bronchiolar carcinoma, dosed 103 weeks, study length 105 weeks) 331 mg/kg/day. For the same molecule, the TD50 reads like this: (mouse, strain B6C3F1, females, in feed, site: thyroid gland, lesion: c-cell adenoma + c-cell carcinoma, dosed 103 weeks, study length 105 weeks) 936 mg/kg/day; (mouse, strain B6C3F1, females, in feed, site: thyroid gland, lesion: c-cell carcinoma, dosed 103 weeks, study length 105 weeks) 1320 mg/kg/day; (mouse, strain B6C3F1, females, in feed, site: thyroid gland, lesion: follicular-cell adenoma + papillary cystadenoma, NOS + papillary adenoma, dosed 103 weeks, study length 105 weeks) 327 mg/kg/day; (mouse, strain B6C3F1, males, in feed, site: any site (literature study), lesion: several types, types named in the paper, dosed 103 weeks, study length 105 weeks) 583 mg/kg/day; (mouse, strain B6C3F1, males, in feed, site: liver, lesion: hepatocellular adenoma + hepatocellular carcinoma + neoplastic nodule, dosed 103 weeks, study length 105 weeks) 1640 mg/kg/day; (mouse, strain B6C3F1, males, in feed, site: thyroid gland, lesion: c-cell adenoma + c-cell carcinoma + follicular-cell adenoma + papillary cystadenoma, NOS + papillary adenoma, dosed 103 weeks, study length 105 weeks) 217 mg/kg/day. In addition, the TD50 by setting is: (mouse, strain B6C3F1, males, in feed, site: thyroid gland, lesion: c-cell adenoma + c-cell carcinoma, dosed 103 weeks, study length 105 weeks) 1260 mg/kg/day; (mouse, strain B6C3F1, males, in feed, site: thyroid gland, lesion: c-cell carcinoma, dosed 103 weeks, study length 105 weeks) 1910 mg/kg/day; (mouse, strain B6C3F1, males, in feed, site: thyroid gland, lesion: follicular-cell adenoma + papillary cystadenoma, NOS + papillary adenoma, dosed 103 weeks, study length 105 weeks) 276 mg/kg/day; (rat, strain Fischer 344, females, in feed, site: any site (literature study), lesion: several types, types named in the paper, dosed 103 weeks, study length 106 weeks) 55.8 mg/kg/day; (rat, strain Fischer 344, females, in feed, site: clitoral gland + uterus, lesion: adenoma, NOS + carcinoma, NOS + endometrial stromal polyp, dosed 103 weeks, study length 106 weeks) 50.8 mg/kg/day; (rat, strain Fischer 344, females, in feed, site: clitoral gland, lesion: adenoma, NOS + carcinoma, NOS, dosed 103 weeks, study length 106 weeks) 137 mg/kg/day. Also, the TD50 is 236 mg/kg/day (rat, strain Fischer 344, females, in feed, site: liver, lesion: hepatocellular adenoma + hepatocellular carcinoma + neoplastic nodule, dosed 103 weeks, study length 106 weeks); 57.6 mg/kg/day (rat, strain Fischer 344, females, in feed, site: thyroid gland, lesion: c-cell adenoma + c-cell carcinoma, dosed 103 weeks, study length 106 weeks); 69.6 mg/kg/day (rat, strain Fischer 344, females, in feed, site: uterus, lesion: endometrial stromal polyp, dosed 103 weeks, study length 106 weeks); 48.1 mg/kg/day (inactive) (rat, strain Fischer 344, males, in feed, site: any site (literature study), lesion: several types, types named in the paper, dosed 103 weeks, study length 106 weeks); 1040 mg/kg/day (rat, strain Fischer 344, males, in feed, site: liver, lesion: hepatocellular adenoma + hepatocellular carcinoma + neoplastic nodule, dosed 103 weeks, study length 106 weeks).
Consider `Cn1cnc([N+](=O)[O-])c1Sc1ncnc2nc[nH]c12`, for which the TD50 (monkey, strain Rhesus [Macaca mulatta], both sexes, in feed, site: any site (literature study), lesion: benign tumor, dosed 774 weeks, study length 851 weeks) turned out to be 4.89 mg/kg/day; the TD50 (monkey, strain Rhesus [Macaca mulatta], both sexes, in feed, site: any site (literature study), lesion: several types, types named in the paper, dosed 774 weeks, study length 851 weeks) was 3.68 mg/kg/day; the TD50 (monkey, strain Rhesus [Macaca mulatta], both sexes, in feed, site: leptomeninges, lesion: lymphocytic lymphoma, dosed 774 weeks, study length 851 weeks) stood at 6.79 mg/kg/day; the TD50 (monkey, strain Rhesus [Macaca mulatta], both sexes, in feed, site: salivary gland, lesion: adenoma, dosed 774 weeks, study length 851 weeks) was 2.18 mg/kg/day; the TD50 (monkey, strain Rhesus [Macaca mulatta], both sexes, in feed, site: uterus, lesion: leiomyoma, dosed 774 weeks, study length 851 weeks) came out at 2.74 mg/kg/day; the TD50 (mouse, strain B6C3F1, females, in feed, site: all sites, lesion: systemic and localized lymphoma, dosed 94 weeks, study length 94 weeks) worked out at 7.59 mg/kg/day. The TD50 was 43.8 mg/kg/day (mouse, strain B6C3F1, females, in feed, site: all sites, lesion: systemic and localized lymphoma, dosed 100 weeks, study length 100 weeks); 67.5 mg/kg/day (mouse, strain B6C3F1, females, in feed, site: liver, lesion: hepatocellular adenoma, dosed 100 weeks, study length 100 weeks); 4.89 mg/kg/day (mouse, strain B6C3F1, females, in feed, site: lung, lesion: one or several types, types not named, dosed 94 weeks, study length 94 weeks); 8.92 mg/kg/day (mouse, strain B6C3F1, females, in feed, site: uterus, lesion: hemangioendothelioma, dosed 100 weeks, study length 100 weeks); 9.66 mg/kg/day (mouse, strain B6C3F1, males, in feed, site: all sites, lesion: systemic and localized lymphoma, dosed 100 weeks, study length 100 weeks); 55.9 mg/kg/day (mouse, strain B6C3F1, males, in feed, site: liver, lesion: hepatocellular carcinoma, dosed 100 weeks, study length 100 weeks). The TD50 was 55.9 mg/kg/day (mouse, strain B6C3F1, males, in feed, site: lung, lesion: carcinoma, dosed 100 weeks, study length 100 weeks) and 10.1 mg/kg/day (rat, strain Fischer 344, females, in feed, site: ear duct, lesion: squamous-cell carcinoma, dosed 52 weeks, study length 52 weeks). Also, the carcinogen call (rat, strain Fischer 344, females, in feed, site: liver, lesion: one or several types, types not named, dosed 52 weeks, study length 52 weeks) is “negative (inactive)”.

The values above are taken from PubChem BioAssay AID1745844 (Carcinogenic Potency Database (CPDB), 2022).
